Literature values as cited in patent publication US10413528B2, “Methods to inhibit infection during wound healing with topical compositions including amino acids” (priority 2014, dated 2019).

Conditions: for maximum aqueous solubility: in water

Row | Structure (SMILES) | maximum aqueous solubility [mg/mL] | maximum solubility in water [mg/mL]
1 | C[C@H](N)C(=O)O [alanine] | 166.5 | –
2 | NC(=O)CC[C@H](N)C(=O)O [glutamine] | 35 | –
3 | N[C@@H](Cc1c[nH]cn1)C(=O)O [histidine] | 41.6 | –
4 | CC(C)C[C@H](N)C(=O)O [leucine] | 22.4 | 22.4
5 | CSCC[C@H](N)C(=O)O [methionine] | 53.7 | –
6 | CC(C)[C@H](N)C(=O)O [valine] | 85 | –
